# Experimental data: ChEMBL document CHEMBL1139392, “Synthesis and antibacterial activities of novel oxazolidinones having cyclic sulfonamide moieties” (2008)
# Legend:
# Assay type in all cases: functional
# Enterococcus [1] = experiment: Antibacterial activity against vancomycin-resistant Enterococcus 1 after 18 to 20 hrs by agar dilution method
# Enterococcus [2] = experiment: Antibacterial activity against vancomycin-resistant Enterococcus 2 after 18 to 20 hrs by agar dilution method
# Enterococcus [3] = experiment: Antibacterial activity against vancomycin-resistant Enterococcus 3 after 18 to 20 hrs by agar dilution method
# Enterococcus [4] = experiment: Antibacterial activity against vancomycin-resistant Enterococcus 4 after 18 to 20 hrs by agar dilution method
# Enterococcus [5] = experiment: Antibacterial activity against vancomycin-resistant Enterococcus 5 after 18 to 20 hrs by agar dilution method
# Enterococcus [6] = experiment: Antibacterial activity against vancomycin-resistant Enterococcus 6 after 18 to 20 hrs by agar dilution method
# Staphylococcus aureus [7] = experiment: Antibacterial activity against Staphylococcus aureus C463 after 18 to 20 hrs by agar dilution method
# Staphylococcus = experiment: Antibacterial activity against coagulase negative Staphylococcus after 18 to 20 hrs by agar dilution method
# Enterococcus faecalis = experiment: Antibacterial activity against Enterococcus faecalis C474 after 18 to 20 hrs by agar dilution method
# Enterococcus faecium [8] = experiment: Antibacterial activity against Enterococcus faecium C803 after 18 to 20 hrs by agar dilution method
# Streptococcus pneumoniae = experiment: Antibacterial activity against Streptococcus pneumoniae C402 after 18 to 20 hrs by agar dilution method
# Streptococcus pyogenes = experiment: Antibacterial activity against Streptococcus pyogenes ATCC 8736 after 18 to 20 hrs by agar dilution method
# Streptococcus agalactiae = experiment: Antibacterial activity against Streptococcus agalactiae ATCC 2901 after 18 to 20 hrs by agar dilution method
# Haemophilus influenzae = experiment: Antibacterial activity against Haemophilus influenzae after 18 to 20 hrs by agar dilution method
# Staphylococcus aureus [9] = experiment: Antibacterial activity against methicillin-resistant Staphylococcus aureus 1 after 18 to 20 hrs by agar dilution method
# Enterococcus faecium [10] = experiment: Antibacterial activity against vancomycin-resistant Enterococcus faecium 1 after 18 to 20 hrs by agar dilution method
# Enterococcus faecium [11] = experiment: Antibacterial activity against vancomycin-resistant Enterococcus faecium 2 after 18 to 20 hrs by agar dilution method
compound,measurement,setting,value
CC(=O)NC[C@H]1CN(c2ccc(N3CCCNS3(=O)=O)c(F)c2)C(=O)O1,MIC,Enterococcus [1],3.12 µg/mL
same,MIC,Enterococcus [2],1.56 µg/mL
same,MIC,Enterococcus [3],0.78 µg/mL
same,MIC,Enterococcus [4],3.12 µg/mL
same,MIC,Enterococcus [5],3.12 µg/mL
same,MIC,Enterococcus [6],3.12 µg/mL
same,MIC,Staphylococcus aureus [7],3.12 µg/mL
same,MIC,Staphylococcus,1.56 µg/mL
same,MIC,Enterococcus faecalis,1.56 µg/mL
same,MIC,Enterococcus faecium [8],1.56 µg/mL
same,MIC,Streptococcus pneumoniae,0.78 µg/mL
same,MIC,Streptococcus pyogenes,1.56 µg/mL
same,MIC,Streptococcus agalactiae,1.56 µg/mL
same,MIC,Haemophilus influenzae,1.56 µg/mL
same,MIC,Staphylococcus aureus [9],1.56 µg/mL
same,MIC,Enterococcus faecium [10],3.12 µg/mL
same,MIC,Enterococcus faecium [11],1.56 µg/mL
CC(=O)NC[C@H]1CN(c2ccc(N3CCN(C)S3(=O)=O)c(F)c2)C(=O)O1,MIC,Enterococcus [1],6.25 µg/mL
same,MIC,Enterococcus [2],6.25 µg/mL
same,MIC,Enterococcus [3],3.12 µg/mL
same,MIC,Enterococcus [4],3.12 µg/mL
same,MIC,Enterococcus [5],3.12 µg/mL
same,MIC,Enterococcus [6],3.12 µg/mL
same,MIC,Staphylococcus aureus [7],3.12 µg/mL
same,MIC,Staphylococcus,6.25 µg/mL
same,MIC,Enterococcus faecalis,3.12 µg/mL
same,MIC,Enterococcus faecium [8],3.12 µg/mL
same,MIC,Streptococcus pneumoniae,0.78 µg/mL
same,MIC,Streptococcus pyogenes,1.56 µg/mL
same,MIC,Streptococcus agalactiae,1.56 µg/mL
same,MIC,Haemophilus influenzae,3.12 µg/mL
same,MIC,Staphylococcus aureus [9],3.12 µg/mL
same,MIC,Enterococcus faecium [10],3.12 µg/mL
same,MIC,Enterococcus faecium [11],3.12 µg/mL
CC(=O)NC[C@H]1CN(c2ccc(N3CC(C)NS3(=O)=O)c(F)c2)C(=O)O1 (stereo not given in full),MIC,Enterococcus [1],6.25 µg/mL
same,MIC,Enterococcus [2],12.5 µg/mL
same,MIC,Enterococcus [3],6.25 µg/mL
same,MIC,Enterococcus [4],6.25 µg/mL
same,MIC,Enterococcus [5],12.5 µg/mL
same,MIC,Enterococcus [6],12.5 µg/mL
same,MIC,Staphylococcus aureus [7],12.5 µg/mL
same,MIC,Staphylococcus,12.5 µg/mL
same,MIC,Enterococcus faecalis,6.25 µg/mL
same,MIC,Enterococcus faecium [8],3.12 µg/mL
same,MIC,Streptococcus pneumoniae,3.12 µg/mL
same,MIC,Streptococcus pyogenes,1.56 µg/mL
same,MIC,Streptococcus agalactiae,3.12 µg/mL
same,MIC,Haemophilus influenzae,6.25 µg/mL
same,MIC,Staphylococcus aureus [9],12.5 µg/mL
same,MIC,Enterococcus faecium [10],6.25 µg/mL
same,MIC,Enterococcus faecium [11],6.25 µg/mL
CC(=O)NC[C@H]1CN(c2ccc(N3CCCN(C)S3(=O)=O)c(F)c2)C(=O)O1,MIC,Enterococcus [1],1.56 µg/mL
same,MIC,Enterococcus [2],1.56 µg/mL
same,MIC,Enterococcus [3],1.56 µg/mL
same,MIC,Enterococcus [4],1.56 µg/mL
same,MIC,Enterococcus [5],1.56 µg/mL
same,MIC,Enterococcus [6],1.56 µg/mL
same,MIC,Staphylococcus aureus [7],1.56 µg/mL
same,MIC,Staphylococcus,1.56 µg/mL
same,MIC,Enterococcus faecalis,1.56 µg/mL
same,MIC,Enterococcus faecium [8],1.56 µg/mL
same,MIC,Streptococcus pneumoniae,0.78 µg/mL
same,MIC,Streptococcus pyogenes,0.78 µg/mL
same,MIC,Streptococcus agalactiae,1.56 µg/mL
same,MIC,Haemophilus influenzae,1.56 µg/mL
same,MIC,Staphylococcus aureus [9],1.56 µg/mL
same,MIC,Enterococcus faecium [10],0.78 µg/mL
same,MIC,Enterococcus faecium [11],1.56 µg/mL
CC(=O)NC[C@H]1CN(c2ccc(N3CC(C)(C)NS3(=O)=O)c(F)c2)C(=O)O1,MIC,Enterococcus [1],25 µg/mL
same,MIC,Enterococcus [2],12.5 µg/mL
same,MIC,Enterococcus [3],6.25 µg/mL
same,MIC,Enterococcus [4],12.5 µg/mL
same,MIC,Enterococcus [5],12.5 µg/mL
same,MIC,Enterococcus [6],12.5 µg/mL
same,MIC,Staphylococcus aureus [7],12.5 µg/mL
same,MIC,Staphylococcus,12.5 µg/mL
same,MIC,Enterococcus faecalis,12.5 µg/mL
same,MIC,Enterococcus faecium [8],25 µg/mL
same,MIC,Streptococcus pneumoniae,12.5 µg/mL
same,MIC,Streptococcus pyogenes,6.25 µg/mL
same,MIC,Streptococcus agalactiae,12.5 µg/mL
same,MIC,Haemophilus influenzae,25 µg/mL
same,MIC,Staphylococcus aureus [9],12.5 µg/mL
same,MIC,Enterococcus faecium [10],12.5 µg/mL
same,MIC,Enterococcus faecium [11],12.5 µg/mL
